Patent US20260297060A1, “COMPOUNDS FOR THE DEGRADATION OF MUTANT BRAF” (C4 THERAPEUTICS, INC., priority 2023, published 2026)
Where two headings read alike, the source gives them in different places.

What was measured:
BRAF V600E = target: T1, BRAF V600E (Homo sapiens, UniProt P15056+Q96SW2, V600E); assay: BRAF V600E HiBiT Degradation Assay; format: cell-based
T1 construct: knock-in of the HiBiT tag to the endogenous BRAF V600E locus; host or cells: A375.10 (A375 clonal line, CRISPR HiBiT knock-in at the endogenous BRAF V600E locus)
Outline: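 Endogenous HiBiT knock-in on BRAF V600E in A375 cells (clone A375.10); 11-point half-log series, top 10 μM, 2, 6 or 24 h at 37° C. Lytic HiBiT luminescence, background-subtracted, normalized to DMSO; 4-parameter fit gives DC50, Emax (residual protein) and IP (inflection point).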

A375-NRAS^Q61K cells = assay: CTGlo Cell Viability Assay, A375-NRAS^Q61K (A375.11) cells, 96 hours; format: cell-based, human; settings: A375.11 (A375-NRAS^Q61K) cells; for Emax / CTGlo A375.11 96 hours Emax: lowest % viability achieved
Outline: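 Viability as CellTiter-Glo ATP luminescence after 96 h compound exposure at 37 °C; A375.11 (BRAF V600E/NRAS Q61K) cells at 250/well, top final concentration 10 μM in half-log steps. Signal was background-corrected and set relative to DMSO controls. A 4-parameter logistic fit gave GI50 (50% crossing) and Emax.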

[1] = A375.10 cells, BRAF V600E, 2 hours, inflection point, read-out: HiBiT-Degradation A375.10 BRAF 2 hours IP
[2] = A375.10 cells, BRAF V600E, 2 hours, read-out: HiBiT-Degradation A375.10 BRAF 2 hours DC50
[3] = A375.10 cells, BRAF V600E, 2 hours, residual protein remaining, read-out: HiBiT-Degradation A375.10 BRAF 2 hours Emax
[4] = A375.10 cells, BRAF V600E, 2 hours, residual protein remaining
[5] = A375.10 cells, BRAF V600E, 6 hours, inflection point, read-out: HiBiT-Degradation A375.10 BRAF 6 hours IP
[6] = A375.10 cells, BRAF V600E, 6 hours, read-out: HiBiT-Degradation A375.10 BRAF 6 hours DC50
[7] = A375.10 cells, HiBiT, BRAF V600E, 24 hours, read-out: HiBiT-Degradation A375.10 BRAF 24 hours DC50
[8] = A375.10 cells, HiBiT, BRAF V600E, 24 hours, read-out: HiBiT-Degradation A375.10 BRAF 24 hours IP
[9] = read-out: HiBiT-Degradation A375.10 BRAF 2 hours DC50, A375.10 cells, BRAF V600E, 2 hours

T1 sequence (P15056 whole entry V600E): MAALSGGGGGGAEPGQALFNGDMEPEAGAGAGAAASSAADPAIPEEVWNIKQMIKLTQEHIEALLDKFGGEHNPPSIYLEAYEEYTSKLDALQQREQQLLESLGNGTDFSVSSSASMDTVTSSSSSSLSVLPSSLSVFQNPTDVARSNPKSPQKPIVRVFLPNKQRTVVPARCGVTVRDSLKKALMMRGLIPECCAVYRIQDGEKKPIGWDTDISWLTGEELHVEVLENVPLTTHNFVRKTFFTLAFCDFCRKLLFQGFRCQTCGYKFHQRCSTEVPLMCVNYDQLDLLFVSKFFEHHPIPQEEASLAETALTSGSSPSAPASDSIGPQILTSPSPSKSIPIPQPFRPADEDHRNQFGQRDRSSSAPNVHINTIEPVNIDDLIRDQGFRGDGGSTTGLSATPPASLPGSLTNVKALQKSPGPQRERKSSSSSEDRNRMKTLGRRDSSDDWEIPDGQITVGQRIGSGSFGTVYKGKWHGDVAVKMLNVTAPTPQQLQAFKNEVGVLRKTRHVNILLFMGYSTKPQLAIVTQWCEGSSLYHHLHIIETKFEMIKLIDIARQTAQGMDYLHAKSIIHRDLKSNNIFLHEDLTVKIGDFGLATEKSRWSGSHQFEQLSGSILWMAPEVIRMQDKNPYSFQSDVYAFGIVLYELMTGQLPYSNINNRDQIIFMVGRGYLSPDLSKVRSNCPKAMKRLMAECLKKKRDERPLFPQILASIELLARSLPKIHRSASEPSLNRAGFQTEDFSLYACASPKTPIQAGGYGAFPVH
T1 sequence (Q96SW2 whole entry): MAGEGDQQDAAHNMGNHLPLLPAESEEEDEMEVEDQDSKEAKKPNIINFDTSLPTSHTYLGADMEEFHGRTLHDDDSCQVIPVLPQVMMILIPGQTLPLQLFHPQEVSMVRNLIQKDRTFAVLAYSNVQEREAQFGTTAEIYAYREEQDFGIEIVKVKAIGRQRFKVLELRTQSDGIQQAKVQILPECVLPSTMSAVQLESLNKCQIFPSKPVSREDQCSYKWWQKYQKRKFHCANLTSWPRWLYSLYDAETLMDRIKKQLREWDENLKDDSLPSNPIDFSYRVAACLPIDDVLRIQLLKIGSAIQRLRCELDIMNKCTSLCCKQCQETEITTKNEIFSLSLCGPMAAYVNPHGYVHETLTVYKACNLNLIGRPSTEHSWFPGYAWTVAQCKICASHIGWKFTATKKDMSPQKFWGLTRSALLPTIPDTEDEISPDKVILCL
T1 sequence (Q16531 whole entry partner): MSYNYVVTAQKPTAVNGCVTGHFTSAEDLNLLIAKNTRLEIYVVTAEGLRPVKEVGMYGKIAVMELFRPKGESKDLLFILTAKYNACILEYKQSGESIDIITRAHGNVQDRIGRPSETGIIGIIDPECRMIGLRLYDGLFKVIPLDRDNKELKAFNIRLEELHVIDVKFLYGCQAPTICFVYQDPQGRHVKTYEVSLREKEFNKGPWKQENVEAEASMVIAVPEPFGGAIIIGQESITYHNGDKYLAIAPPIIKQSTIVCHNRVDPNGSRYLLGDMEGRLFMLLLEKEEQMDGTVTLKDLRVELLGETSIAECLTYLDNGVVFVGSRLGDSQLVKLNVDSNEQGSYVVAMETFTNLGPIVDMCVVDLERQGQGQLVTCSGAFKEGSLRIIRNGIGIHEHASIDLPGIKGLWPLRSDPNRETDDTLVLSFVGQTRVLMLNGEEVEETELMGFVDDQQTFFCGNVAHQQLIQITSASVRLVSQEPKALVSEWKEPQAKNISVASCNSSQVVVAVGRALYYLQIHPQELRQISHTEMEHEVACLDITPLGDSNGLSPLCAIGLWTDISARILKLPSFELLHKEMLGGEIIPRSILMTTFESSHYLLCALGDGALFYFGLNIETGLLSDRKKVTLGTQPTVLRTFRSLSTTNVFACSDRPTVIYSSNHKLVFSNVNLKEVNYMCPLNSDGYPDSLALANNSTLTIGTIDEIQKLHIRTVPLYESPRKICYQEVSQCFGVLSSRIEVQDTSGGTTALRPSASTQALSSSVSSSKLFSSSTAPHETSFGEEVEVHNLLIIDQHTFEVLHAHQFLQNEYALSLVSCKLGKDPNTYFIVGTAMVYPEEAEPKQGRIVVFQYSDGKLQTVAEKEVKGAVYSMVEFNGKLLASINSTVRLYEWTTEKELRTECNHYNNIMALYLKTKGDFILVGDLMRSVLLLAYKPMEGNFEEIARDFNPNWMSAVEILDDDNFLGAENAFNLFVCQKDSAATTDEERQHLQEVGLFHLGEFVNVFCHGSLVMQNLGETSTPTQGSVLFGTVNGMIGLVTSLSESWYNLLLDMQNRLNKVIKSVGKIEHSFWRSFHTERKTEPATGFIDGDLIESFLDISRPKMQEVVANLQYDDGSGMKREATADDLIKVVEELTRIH

SMILES: CCN(C)S(=O)(=O)Nc1ccc(F)c(Oc2ccc3ncn([C@@H]4C[C@@H]5CN(C6CCC(c7cc8c(cc7F)c(N7CCC(=O)NC7=O)nn8C)CC6)C[C@@H]5C4)c(=O)c3c2)c1C#N (single isomer, unassigned) [Compound 16]
- DC50 (BRAF V600E; [1]): < 1 µM
- DC50 (BRAF V600E; [2]): < 1 µM
- Emax (BRAF V600E; [3]): 50 to 90%
- GI50 (A375-NRAS^Q61K cells): 1 to 10 µM
- Emax (A375-NRAS^Q61K cells; Homo sapiens, 96 h): < 50%

SMILES: CCN(C)S(=O)(=O)Nc1ccc(F)c(Oc2ccc3ncc(OCC4(O)CCN(C5CCC(c6cc7c(cc6F)c(N6CCC(=O)NC6=O)nn7C)CC5)CC4)nc3c2)c1C#N (single isomer, unassigned) [Compound 196, 7-[2-cyano-3-[[ethyl(methyl)sulfamoyl]amino]-6-fluoro-phenoxy]-2-[[1-[4-[3-(2,4-dioxohexahydropyrimidin-1-yl)-5-fluoro-1-methyl-indazol-6-yl]cyclohexyl]-4-hydroxy-4-piperidyl]methoxy]quinoxaline]
- DC50 (BRAF V600E; [1]): < 1 µM
- DC50 (BRAF V600E; [2]): < 1 µM
- HiBiT-Degradation A375.10 BRAF 2 hours Emax (BRAF V600E; [4]): *** (<=50%)
- GI50 (A375-NRAS^Q61K cells): < 1 µM
- CTGlo A375.11 96 hours Emax (A375-NRAS^Q61K cells): ** (<90% and >50%)

SMILES: CCN(C)S(=O)(=O)Nc1ccc(F)c(Nc2ccc3ncn([C@H]4COC5(CCN(C6CCC(c7ccc(NC8CCC(=O)NC8=O)cc7F)CC6)CC5)C4)c(=O)c3c2)c1C#N (single isomer, unassigned) [Compound 57]
- DC50 (BRAF V600E; [1]): < 1 µM
- DC50 (BRAF V600E; [2]): < 1 µM
- HiBiT-Degradation A375.10 BRAF 2 hours Emax (BRAF V600E; [4]): *** (<=50%)
- DC50 (BRAF V600E; [5]): < 1 µM
- DC50 (BRAF V600E; [6]): < 1 µM
- Emax (BRAF V600E; A375.10 cells, BRAF V600E, 6 hours, residual protein remaining, read-out: HiBiT-Degradation A375.10 BRAF 6 hours Emax): < 50%
- DC50 (BRAF V600E; [7]): < 1 µM
- Emax (BRAF V600E; A375.10 cells, HiBiT, BRAF V600E, 24 hours, read-out: HiBiT-Degradation A375.10 BRAF 24 hours Emax): < 50%
- DC50 (BRAF V600E; [8]): < 1 µM
- GI50 (A375-NRAS^Q61K cells): 1 to 10 µM
- CTGlo A375.11 96 hours Emax (A375-NRAS^Q61K cells): ** (<90% and >50%)

SMILES: CO[C@H]1CCN(S(=O)(=O)Nc2ccc(F)c(Oc3ccc4ncc(C5CC6(CCN(C7CCC(c8cc9c(cc8F)c(N8CCC(=O)NC8=O)nn9C)CC7)CC6)C5)nc4c3)c2C#N)C1 (single isomer, unassigned) [Compound 275]
- HiBiT-Degradation A375.10 BRAF 2 hours IP (BRAF V600E; A375.10 cells, BRAF V600E, 2 hours, inflection point): *** (<=1 μM)
- Emax (BRAF V600E; [3]): 50 to 90%
- DC50 (BRAF V600E; [9]): < 1 µM
- GI50 (A375-NRAS^Q61K cells): > 10 µM
- Emax (A375-NRAS^Q61K cells; Homo sapiens, 96 h): 50 to 90%

SMILES: Cn1nc(N2CCC(=O)NC2=O)c2cc(F)c(N3CC4(CC(N5CCC6(CC5)CC(n5cnc7ccc(Oc8c(F)ccc(NS(=O)(=O)C9CCOCC9)c8C#N)cc7c5=O)C6)C4)C3)cc21 [Compound 263, N-[2-cyano-3-[3-[7-[2-[3-(2,4-dioxohexahydropyrimidin-1-yl)-5-fluoro-1-methyl-indazol-6-yl]-2-azaspiro[3.3]heptan-6-yl]-7-azaspiro[3.5]nonan-2-yl]-4-oxo-quinazolin-6-yl]oxy-4-fluoro-phenyl]tetrahydropyran-4-sulfonamide]
- Emax (BRAF V600E; [3]): < 50%
- DC50 (BRAF V600E; [9]): < 1 µM
- DC50 (BRAF V600E; read-out: HiBiT-Degradation A375.10 BRAF 2 hours IP, A375.10 cells, BRAF V600E, 2 hours, inflection point): < 1 µM
- GI50 (A375-NRAS^Q61K cells; Homo sapiens, 96 h): > 10 µM
- Emax (A375-NRAS^Q61K cells; Homo sapiens, 96 h): 50 to 90%

SMILES: CCN(C)S(=O)(=O)Nc1ccc(F)c(Oc2ccc3ncn(C4CC5(CCN(C6CCN(c7cc8c(cc7F)c(N7CCC(=O)NC7=O)nn8C)CC6)C5)C4)c(=O)c3c2)c1C#N (single isomer, unassigned) [Compound 307, 6-[2-cyano-3-[[ethyl(methyl)sulfamoyl]amino]-6-fluoro-phenoxy]-3-[6-[1-[3-(2,4-dioxohexahydropyrimidin-1-yl)-5-fluoro-1-methyl-indazol-6-yl]-4-piperidyl]-6-azaspiro[3.4]octan-2-yl]-4-oxo-quinazoline]
- DC50 (BRAF V600E; [1]): < 1 µM
- DC50 (BRAF V600E; [2]): 1 to 10 µM
- Emax (BRAF V600E; [3]): 50 to 90%
- GI50 (A375-NRAS^Q61K cells; Homo sapiens, 96 h): 1 to 10 µM
- Emax (A375-NRAS^Q61K cells; Homo sapiens, 96 h): 50 to 90%

SMILES: CCN(C)S(=O)(=O)Nc1ccc(F)c(Nc2ccc3ncn([C@@H]4COC5(CCN(C6CCC(c7cc8c(cc7F)c(N7CCC(=O)NC7=O)nn8C)CC6)CC5)C4)c(=O)c3c2F)c1C#N (single isomer, unassigned) [Compound 68]
- DC50 (BRAF V600E; [1]): < 1 µM
- DC50 (BRAF V600E; [2]): < 1 µM
- Emax (BRAF V600E; [3]): < 50%
- GI50 (A375-NRAS^Q61K cells): > 10 µM
- Emax (A375-NRAS^Q61K cells; Homo sapiens, 96 h): < 50%

SMILES: CCN(C)S(=O)(=O)Nc1ccc(F)c(Oc2ccc3ncn(C4CCC(N5CC6(CCN(c7cc8c(cc7F)c(N7CCC(=O)NC7=O)nn8C)CC6)C5)CC4)c(=O)c3c2)c1C#N (single isomer, unassigned) [Compound 221, 6-[2-cyano-3-[[ethyl(methyl)sulfamoyl]amino]-6-fluoro-phenoxy]-3-[4-[7-[3-(2,4-dioxohexahydropyrimidin-1-yl)-5-fluoro-1-methyl-indazol-6-yl]-2,7-diazaspiro[3.5]nonan-2-yl]cyclohexyl]-4-oxo-quinazoline]
- DC50 (BRAF V600E; [1]): < 1 µM
- DC50 (BRAF V600E; [2]): < 1 µM
- Emax (BRAF V600E; [3]): < 50%
- GI50 (A375-NRAS^Q61K cells; Homo sapiens, 96 h): 1 to 10 µM
- Emax (A375-NRAS^Q61K cells; Homo sapiens, 96 h): 50 to 90%

SMILES: CCN(C)S(=O)(=O)Nc1ccc(F)c(Oc2ccc3ncnc(OC4CC5(C4)CN(C4CCC(c6cc7c(cc6F)c(N6CCC(=O)NC6=O)nn7C)CC4)C5)c3c2)c1C#N (single isomer, unassigned) [Compound 232, 6-[2-cyano-3-[[ethyl(methyl)sulfamoyl]amino]-6-fluoro-phenoxy]-4-[[2-[4-[3-(2,4-dioxohexahydropyrimidin-1-yl)-5-fluoro-1-methyl-indazol-6-yl]cyclohexyl]-2-azaspiro[3.3]heptan-6-yl]oxy]quinazoline]
- DC50 (BRAF V600E; [1]): < 1 µM
- DC50 (BRAF V600E; [2]): < 1 µM
- Emax (BRAF V600E; read-out: HiBiT-Degradation A375.10 BRAF 2 hours Emax, A375.10 cells, BRAF V600E, 2 hours, residual protein remaining): 50 to 90%
- GI50 (A375-NRAS^Q61K cells; Homo sapiens, 96 h): > 10 µM
- Emax (A375-NRAS^Q61K cells; Homo sapiens, 96 h): 50 to 90%

SMILES: CCN(C)S(=O)(=O)Nc1ccc(F)c(Oc2ccc3ncn(C4CC5(CCN(C6CCC(c7ccc(NC8CCC(=O)NC8=O)cc7F)CC6)CC5)C4)c(=O)c3c2)c1C#N (single isomer, unassigned) [Compound 7, 6-[2-cyano-3-[[ethyl(methyl)sulfamoyl]amino]-6-fluoro-phenoxy]-3-[7-[4-[4-[(2,6-dioxo-3-piperidyl)amino]-2-fluoro-phenyl]cyclohexyl]-7-azaspiro[3.5]nonan-2-yl]-4-oxo-quinazoline]
- DC50 (BRAF V600E; [1]): < 1 µM
- DC50 (BRAF V600E; [2]): < 1 µM
- HiBiT-Degradation A375.10 BRAF 2 hours Emax (BRAF V600E; [4]): *** (<=50%)
- DC50 (BRAF V600E; [5]): < 1 µM
- DC50 (BRAF V600E; [6]): < 1 µM
- HiBiT-Degradation A375.10 BRAF 6 hours Emax (BRAF V600E; A375.10 cells, BRAF V600E, 6 hours, residual protein remaining): *** (<=50%)
- HiBiT-Degradation A375.10 BRAF 24 hours Emax (BRAF V600E; A375.10 cells, HiBiT, BRAF V600E, 24 hours): *** (<=50%)
- DC50 (BRAF V600E; [7]): < 1 µM
- DC50 (BRAF V600E; [8]): < 1 µM
- GI50 (A375-NRAS^Q61K cells): < 1 µM
- CTGlo A375.11 96 hours Emax (A375-NRAS^Q61K cells): *** (<=50%)

SMILES: CCN(C)S(=O)(=O)Nc1ccc(F)c(Oc2ccc3ncn(CC4CCN(C5CCN(c6cc7c(cc6F)c(N6CCC(=O)NC6=O)nn7C)CC5)CC4)c(=O)c3c2)c1C#N [Compound 264, 6-[2-cyano-3-[[ethyl(methyl)sulfamoyl]amino]-6-fluoro-phenoxy]-3-[[1-[1-[3-(2,4-dioxohexahydropyrimidin-1-yl)-5-fluoro-1-methyl-indazol-6-yl]-4-piperidyl]-4-piperidyl]methyl]-4-oxo-quinazoline]
- DC50 (BRAF V600E; [1]): < 1 µM
- DC50 (BRAF V600E; [2]): < 1 µM
- Emax (BRAF V600E; [3]): < 50%
- GI50 (A375-NRAS^Q61K cells; Homo sapiens, 96 h): 1 to 10 µM
- Emax (A375-NRAS^Q61K cells; Homo sapiens, 96 h): 50 to 90%

SMILES: CCN(C)S(=O)(=O)Nc1ccc(F)c(Oc2ccc3ncn([C@@H]4CO[C@]5(CCN(C6CCC(c7cc8c(cc7F)c(N7CCC(=O)NC7=O)nn8C)CC6)C5)C4)c(=O)c3c2)c1C#N (single isomer, unassigned) [Compound 291]
- DC50 (BRAF V600E; [1]): < 1 µM
- DC50 (BRAF V600E; [2]): > 10 µM
- HiBiT-Degradation A375.10 BRAF 2 hours Emax (BRAF V600E; [4]): ** (<90% and >50%)
- GI50 (A375-NRAS^Q61K cells): 1 to 10 µM
- CTGlo A375.11 96 hours Emax (A375-NRAS^Q61K cells): * (>=90%)

SMILES: CCN(C)S(=O)(=O)Nc1ccc(F)c(Oc2ccc3ncc(OCC4(F)CCN(C5CCC(c6cc7c(cc6F)c(N6CCC(=O)NC6=O)nn7C)CC5)CC4)nc3c2)c1C#N (single isomer, unassigned) [Compound 229, 7-[2-cyano-3-[[ethyl(methyl)sulfamoyl]amino]-6-fluoro-phenoxy]-2-[[1-[4-[3-(2,4-dioxohexahydropyrimidin-1-yl)-5-fluoro-1-methyl-indazol-6-yl]cyclohexyl]-4-fluoro-4-piperidyl]methoxy]quinoxaline]
- DC50 (BRAF V600E; [1]): < 1 µM
- DC50 (BRAF V600E; [2]): < 1 µM
- HiBiT-Degradation A375.10 BRAF 2 hours Emax (BRAF V600E; [4]): *** (<=50%)
- GI50 (A375-NRAS^Q61K cells): < 1 µM
- CTGlo A375.11 96 hours Emax (A375-NRAS^Q61K cells): ** (<90% and >50%)
